From ChEMBL document CHEMBL3045679, “Microwave-assisted synthesis and pharmacological studies of novel 5-deazaalloxazine derivatives” (2012)
Values after ≈ are worked out from the molar mass of the structure shown. Active and inactive are the calls of the source. No cut-off for these calls is given here.

Legend:
Aspergillus flavus [1] = assay: Antifungal activity against Aspergillus flavus NCIM 535 at 1000 ug/disk after 72 hr by disk diffusion method; type: functional; conditions: NCIM 535, 72 h, read-out: DIZ
Rhodotorula mucilaginosa [2] = assay: Antifungal activity against Rhodotorula mucilaginosa NCIM 3174 at 500 ug/disk after 72 hr by disk diffusion method; type: functional
Escherichia coli [3] = assay: Antibacterial activity against Escherichia coli NCIM 2065 at 1000 ug/disk after 24 hr by disk diffusion method; type: functional; conditions: NCIM 2065, 24 h, read-out: DIZ
Lipomyces lipofer [4] = assay: Antifungal activity against Lipomyces lipofer NCIM 3252 at 500 ug/disk after 72 hr by disk diffusion method; type: functional; conditions: for zone of inhibition at 500 µg/disc: NCIM 3252, 72 h, read-out: DIZ
Pseudomonas aeruginosa [5] = assay: Antibacterial activity against Pseudomonas aeruginosa NCIM 2200 after 24 hr by broth dilution assay; type: functional; conditions: NCIM 2200, 24 h
Lipomyces lipofer [6] = assay: Antifungal activity against Lipomyces lipofer NCIM 3252 after 72 hr by broth dilution assay; type: functional; conditions: NCIM 3252, 72 h
Aspergillus niger [7] = assay: Antifungal activity against Aspergillus niger NCIM 1196 after 72 hr by broth dilution assay; type: functional; conditions: NCIM 1196, 72 h
Penicillium chrysogenum [8] = assay: Antifungal activity against Penicillium chrysogenum NCIM 707 at 1000 ug/disk after 72 hr by disk diffusion method; type: functional; conditions: for zone of inhibition at 1000 µg/disc: NCIM 707, 72 h, read-out: DIZ
Pseudomonas aeruginosa [9] = assay: Antibacterial activity against Pseudomonas aeruginosa NCIM 2200 at 500 ug/disk after 24 hr by disk diffusion method; type: functional; conditions: for zone of inhibition at 500 µg/disc: NCIM 2200, 24 h, read-out: DIZ
Rhodotorula mucilaginosa [10] = assay: Antifungal activity against Rhodotorula mucilaginosa NCIM 3174 at 1000 ug/disk after 72 hr by disk diffusion method; type: functional; conditions: for zone of inhibition at 1000 µg/disc: NCIM 3174, 72 h, read-out: DIZ
Lipomyces lipofer [11] = assay: Antifungal activity against Lipomyces lipofer NCIM 3252 at 1000 ug/disk after 72 hr by disk diffusion method; type: functional; conditions: for zone of inhibition at 1000 µg/disc: NCIM 3252, 72 h, read-out: DIZ
Candida albicans [12] = assay: Antifungal activity against Candida albicans NCIM 3471 at 500 ug/disk after 72 hr by disk diffusion method; type: functional
Bacillus cereus [13] = assay: Antibacterial activity against Bacillus cereus NCIM 2155 at 500 ug/disk after 24 hr by disk diffusion method; type: functional; conditions: for zone of inhibition at 500 µg/disc: NCIM 2155, 24 h, read-out: DIZ
Pseudomonas aeruginosa [14] = assay: Antibacterial activity against Pseudomonas aeruginosa NCIM 2200 at 1000 ug/disk after 24 hr by disk diffusion method; type: functional; conditions: NCIM 2200, 24 h, read-out: DIZ
Aspergillus niger [15] = assay: Antifungal activity against Aspergillus niger NCIM 1196 at 500 ug/disk after 72 hr by disk diffusion method; type: functional; conditions: for zone of inhibition at 500 µg/disc: NCIM 1196, 72 h, read-out: DIZ
Aspergillus flavus [16] = assay: Antifungal activity against Aspergillus flavus NCIM 535 at 500 ug/disk after 72 hr by disk diffusion method; type: functional
Candida albicans [17] = assay: Antifungal activity against Candida albicans NCIM 3471 at 1000 ug/disk after 72 hr by disk diffusion method; type: functional; conditions: for zone of inhibition at 1000 µg/disc: NCIM 3471, 72 h, read-out: DIZ
Escherichia coli [18] = assay: Antibacterial activity against Escherichia coli NCIM 2065 at 500 ug/disk after 24 hr by disk diffusion method; type: functional; conditions: for zone of inhibition at 500 µg/disc: NCIM 2065, 24 h, read-out: DIZ
Aspergillus niger [19] = assay: Antifungal activity against Aspergillus niger NCIM 1196 at 1000 ug/disk after 72 hr by disk diffusion method; type: functional; conditions: NCIM 1196, 72 h, read-out: DIZ
Bacillus subtilis [20] = assay: Antibacterial activity against Bacillus subtilis NCIM 2063 at 1000 ug/disk after 24 hr by disk diffusion method; type: functional; conditions: NCIM 2063, 24 h, read-out: DIZ
Escherichia coli [21] = assay: Antibacterial activity against Escherichia coli NCIM 2065 after 24 hr by broth dilution assay; type: functional; conditions: NCIM 2065, 24 h
Streptomyces albus [22] = assay: Antibacterial activity against Streptomyces albus NCIM 2178 at 500 ug/disk after 24 hr by disk diffusion method; type: functional, organism-based
Klebsiella aerogenes [23] = assay: Antibacterial activity against Enterobacter aerogenes NCIM 2239 at 1000 ug/disk after 24 hr by disk diffusion method; type: functional; conditions: NCIM 2239, 24 h, read-out: DIZ
Bacillus subtilis [24] = assay: Antibacterial activity against Bacillus subtilis NCIM 2063 at 500 ug/disk after 24 hr by disk diffusion method; type: functional
Klebsiella aerogenes [25] = assay: Antibacterial activity against Enterobacter aerogenes NCIM 2239 at 500 ug/disk after 24 hr by disk diffusion method; type: functional; conditions: for zone of inhibition at 500 µg/disc: NCIM 2239, 24 h, read-out: DIZ
Penicillium chrysogenum [26] = assay: Antifungal activity against Penicillium chrysogenum NCIM 707 at 500 ug/disk after 72 hr by disk diffusion method; type: functional
Klebsiella aerogenes [27] = assay: Antibacterial activity against Enterobacter aerogenes NCIM 2239 after 24 hr by broth dilution assay; type: functional; conditions: NCIM 2239, 24 h
Bacillus cereus [28] = assay: Antibacterial activity against Bacillus cereus NCIM 2155 after 24 hr by broth dilution assay; type: functional; conditions: NCIM 2155, 24 h
Streptomyces albus [29] = assay: Antibacterial activity against Streptomyces albus NCIM 2178 at 1000 ug/disk after 24 hr by disk diffusion method; type: functional
Bacillus cereus [30] = assay: Antibacterial activity against Bacillus cereus NCIM 2155 at 1000 ug/disk after 24 hr by disk diffusion method; type: functional; conditions: NCIM 2155, 24 h, read-out: DIZ
Bacillus subtilis [31] = assay: Antibacterial activity against Bacillus subtilis NCIM 2063 after 24 hr by broth dilution assay; type: functional; conditions: NCIM 2063, 24 h
Rhodotorula mucilaginosa [32] = assay: Antifungal activity against Rhodotorula mucilaginosa NCIM 3174 after 72 hr by broth dilution assay; type: functional; conditions: NCIM 3174, 72 h
Candida albicans [33] = assay: Antifungal activity against Candida albicans NCIM 3471 after 72 hr by broth dilution assay; type: functional; conditions: NCIM 3471, 72 h

SMILES | zone of inhibition at 1000 µg/disc (Aspergillus flavus [1]) | diameter of the inhibition zone (DIZ) (Rhodotorula mucilaginosa [2]) | zone of inhibition at 1000 µg/disc (Escherichia coli [3]) | MIC (Pseudomonas aeruginosa [5]) | MIC (Aspergillus niger [7]) | zone of inhibition at 1000 µg/disc (Rhodotorula mucilaginosa [10]) | diameter of the inhibition zone (DIZ) (Candida albicans [12]) | zone of inhibition at 500 µg/disc (Bacillus cereus [13]) | zone of inhibition at 1000 µg/disc (Pseudomonas aeruginosa [14]) | diameter of the inhibition zone (DIZ) (Aspergillus flavus [16]) | zone of inhibition at 1000 µg/disc (Aspergillus niger [19]) | zone of inhibition at 1000 µg/disc (Bacillus subtilis [20]) | MIC (Escherichia coli [21]) | diameter of the inhibition zone (DIZ) (Streptomyces albus [22]) | zone of inhibition at 1000 µg/disc (Klebsiella aerogenes [23]) | diameter of the inhibition zone (DIZ) (Penicillium chrysogenum [26]) | MIC (Klebsiella aerogenes [27]) | MIC (Bacillus cereus [28]) | zone of inhibition at 1000 µg/disc (Bacillus cereus [30]) | MIC (Bacillus subtilis [31]) | other results
O=c1[nH]c(=S)[nH]c2nc3ccc(Cl)cc3cc12 | 10 mm | inactive | 10 mm | 7.8 µg/mL (≈ 29.6 µM) | 3.9 µg/mL (≈ 14.8 µM) | 12 mm | inactive | 9 mm | 13 mm | inactive | 14 mm | 14 mm | 62.5 µg/mL (≈ 237 µM) | inactive | 10 mm | inactive | 31.2 µg/mL (≈ 118 µM) | 62.5 µg/mL (≈ 237 µM) | 13 mm | 3.9 µg/mL (≈ 14.8 µM) | zone of inhibition at 500 µg/disc (Lipomyces lipofer [4]): 9 mm; MIC (Lipomyces lipofer [6]): 7.8 µg/mL (≈ 29.6 µM); zone of inhibition at 1000 µg/disc (Penicillium chrysogenum [8]): 10 mm; zone of inhibition at 500 µg/disc (Pseudomonas aeruginosa [9]): 10 mm; zone of inhibition at 1000 µg/disc (Lipomyces lipofer [11]): 15 mm; zone of inhibition at 500 µg/disc (Aspergillus niger [15]): 11 mm; zone of inhibition at 1000 µg/disc (Candida albicans [17]): 11 mm; zone of inhibition at 500 µg/disc (Escherichia coli [18]): 8 mm; zone of inhibition at 500 µg/disc (Bacillus subtilis [24]; NCIM 2063, 24 h, read-out: DIZ): 11 mm; zone of inhibition at 500 µg/disc (Klebsiella aerogenes [25]): 8 mm; diameter of the inhibition zone (DIZ) (Streptomyces albus [29]): inactive
Cc1ccc2nc3[nH]c(=S)[nH]c(=O)c3cc2c1 | 8 mm | inactive | 11 mm | 62.5 µg/mL (≈ 257 µM) | 3.9 µg/mL (≈ 16 µM) | 9 mm | inactive | 8 mm | 12 mm | inactive | 14 mm | 12 mm | 31.2 µg/mL (≈ 128 µM) | inactive | 13 mm | inactive | 7.8 µg/mL (≈ 32.1 µM) | 62.5 µg/mL (≈ 257 µM) | 10 mm | 31.2 µg/mL (≈ 128 µM) | zone of inhibition at 500 µg/disc (Lipomyces lipofer [4]): 9 mm; MIC (Lipomyces lipofer [6]): 62.5 µg/mL (≈ 257 µM); diameter of the inhibition zone (DIZ) (Penicillium chrysogenum [8]): inactive; diameter of the inhibition zone (DIZ) (Pseudomonas aeruginosa [9]): inactive; zone of inhibition at 1000 µg/disc (Lipomyces lipofer [11]): 10 mm; zone of inhibition at 500 µg/disc (Aspergillus niger [15]): 11 mm; diameter of the inhibition zone (DIZ) (Candida albicans [17]): inactive; zone of inhibition at 500 µg/disc (Escherichia coli [18]): 9 mm; diameter of the inhibition zone (DIZ) (Bacillus subtilis [24]): inactive; zone of inhibition at 500 µg/disc (Klebsiella aerogenes [25]): 9 mm; zone of inhibition at 1000 µg/disc (Streptomyces albus [29]; NCIM 2178, 24 h, read-out: DIZ): 9 mm
COc1cccc2cc3c(=O)[nH]c(=O)[nH]c3nc12 | 8 mm |  | 12 mm | 62.5 µg/mL (≈ 257 µM) | 125 µg/mL (≈ 514 µM) | 10 mm | inactive |  | 10 mm | inactive | 11 mm | 10 mm | 7.8 µg/mL (≈ 32.1 µM) | inactive | 8 mm | inactive | 62.5 µg/mL (≈ 257 µM) | 31.5 µg/mL (≈ 130 µM) | 12 mm | 62.5 µg/mL (≈ 257 µM) | zone of inhibition at 500 µg/disc (Rhodotorula mucilaginosa [2]; NCIM 3174, 72 h, read-out: DIZ): 8 mm; diameter of the inhibition zone (DIZ) (Lipomyces lipofer [4]): inactive; zone of inhibition at 1000 µg/disc (Penicillium chrysogenum [8]): 8 mm; diameter of the inhibition zone (DIZ) (Pseudomonas aeruginosa [9]): inactive; diameter of the inhibition zone (DIZ) (Lipomyces lipofer [11]): inactive; diameter of the inhibition zone (DIZ) (Bacillus cereus [13]): inactive; diameter of the inhibition zone (DIZ) (Aspergillus niger [15]): inactive; zone of inhibition at 1000 µg/disc (Candida albicans [17]): 12 mm; diameter of the inhibition zone (DIZ) (Escherichia coli [18]): inactive; diameter of the inhibition zone (DIZ) (Bacillus subtilis [24]): inactive; diameter of the inhibition zone (DIZ) (Klebsiella aerogenes [25]): inactive; diameter of the inhibition zone (DIZ) (Streptomyces albus [29]): inactive; MIC (Rhodotorula mucilaginosa [32]): 31.2 µg/mL (≈ 128 µM); MIC (Candida albicans [33]): 125 µg/mL (≈ 514 µM)
O=c1[nH]c(=O)c2cc3cc(Br)ccc3nc2[nH]1 | 11 mm | inactive | 11 mm | 31.2 µg/mL (≈ 107 µM) | 62.5 µg/mL (≈ 214 µM) |  | inactive | 8 mm | 12 mm | inactive | 12 mm | 12 mm | 7.8 µg/mL (≈ 26.7 µM) | inactive | 10 mm | inactive | 62.5 µg/mL (≈ 214 µM) | 62.5 µg/mL (≈ 214 µM) | 11 mm | 31.2 µg/mL (≈ 107 µM) | diameter of the inhibition zone (DIZ) (Lipomyces lipofer [4]): inactive; diameter of the inhibition zone (DIZ) (Penicillium chrysogenum [8]): inactive; zone of inhibition at 500 µg/disc (Pseudomonas aeruginosa [9]): 9 mm; diameter of the inhibition zone (DIZ) (Rhodotorula mucilaginosa [10]): inactive; diameter of the inhibition zone (DIZ) (Lipomyces lipofer [11]): inactive; diameter of the inhibition zone (DIZ) (Aspergillus niger [15]): inactive; diameter of the inhibition zone (DIZ) (Candida albicans [17]): inactive; zone of inhibition at 500 µg/disc (Escherichia coli [18]): 7 mm; diameter of the inhibition zone (DIZ) (Bacillus subtilis [24]): inactive; diameter of the inhibition zone (DIZ) (Klebsiella aerogenes [25]): inactive; diameter of the inhibition zone (DIZ) (Streptomyces albus [29]): inactive
